44 compounds from BindingDB's records for doi:10.1021/cb700200w (Novartis, 2008) can be followed below.

One assay deals with T1, Aurora kinase A (Homo sapiens, UniProt O14965).
T1 sequence (O14965 whole entry): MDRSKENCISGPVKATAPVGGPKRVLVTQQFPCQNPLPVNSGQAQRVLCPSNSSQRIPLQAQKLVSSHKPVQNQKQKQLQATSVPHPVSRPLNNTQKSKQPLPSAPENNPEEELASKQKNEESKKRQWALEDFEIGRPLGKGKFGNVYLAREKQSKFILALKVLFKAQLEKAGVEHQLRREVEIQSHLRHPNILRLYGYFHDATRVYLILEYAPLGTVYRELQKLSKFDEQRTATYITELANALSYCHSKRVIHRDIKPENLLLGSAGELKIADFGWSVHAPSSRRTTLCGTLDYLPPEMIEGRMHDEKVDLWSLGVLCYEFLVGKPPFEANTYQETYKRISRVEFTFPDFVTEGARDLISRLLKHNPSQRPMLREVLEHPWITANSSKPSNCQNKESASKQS
Description: Aurora Kinase SPA Assay.
Settings: not given
Here is the method:
The biochemical activity of compounds was determined by incubation with Aurora A and substrates in the presence ATP/[gamma-33P] ATP. After incubation, the reaction was stopped and the phosphorylated substrate was separated from nonincorporated radioactive ATP using SPA beads (Amersham Pharmacia Biotech), counted using TopCount (Packard) to measure substrate-incorporated phosphate.
Consider `CCN1CCN(Cc2ccc(Nc3ncc(C#N)s3)nc2)CC1` [2-({5-[(4-ethylpiperazin-1-yl)methyl]pyridin-2-yl}amino)-1,3-thiazole-5-carbonitrile], for which inhibition was half-maximal at 4.4 µM (IC50).
With `CN1CCN(Cc2ccc(Nc3ncc(C#N)s3)nc2)CC1` [2-({5-[(4-methylpiperazin-1-yl)methyl]pyridin-2-yl}amino)-1,3-thiazole-5-carbonitrile], it took 3.8 µM to reach half-maximal inhibition (IC50).
For `N#Cc1cnc(Nc2ccc(CN3CCN(CCO)CC3)cn2)s1` [2-[(5-{[4-(2-hydroxyethyl)piperazin-1-yl]methyl}pyridin-2-yl)amino]-1,3-thiazole-5-carbonitrile], inhibition was half-maximal at 5.4 µM (IC50).
Take `N#Cc1cnc(Nc2ccc(CN3CCOCC3)cn2)s1` [2-{[5-(morpholin-4-ylmethyl)pyridin-2-yl]amino}-1,3-thiazole-5-carbonitrile]: it took 1.4 µM to reach half-maximal inhibition (IC50).
Consider `O=C(Nc1ccccc1)Nc1ncc(Br)s1` [3-(5-bromo-1,3-thiazol-2-yl)-1-phenylurea], for which the IC50 – broadly, the concentration that gives 50% inhibition – is > 10 µM.
The compound `COCCNC(=O)c1cccc(Nc2ncc(Br)s2)c1` [3-[(5-bromo-1,3-thiazol-2-yl)amino]-N-(2-methoxyethyl)benzamide] yielded an IC50 of 1.22 µM.
Still for that read-out and setting: the same measure for `CNC(=O)c1cccc(Nc2ncc(Br)s2)c1` [3-[(5-bromo-1,3-thiazol-2-yl)amino]-N-methylbenzamide]: 0.74 µM; for `O=C(O)c1cccc(Nc2ncc(Br)s2)c1` [3-[(5-bromo-1,3-thiazol-2-yl)amino]benzoic acid]: 0.44 µM; for `N#Cc1cccc(Nc2ncc(Br)s2)c1` [3-[(5-bromo-1,3-thiazol-2-yl)amino]benzonitrile]: 1.5 µM.
Still for that read-out and setting: then `CNC(=O)N1CCN(Cc2ccc(Nc3ncc(C#N)s3)nc2)CC1` [4-({6-[(5-cyano-1,3-thiazol-2-yl)amino]pyridin-3-yl}methyl)-N-methylpiperazine-1-carboxamide], with 0.88 µM.
Compound `CCN(CC)CCNC(=O)c1ccc(Nc2ncc(Br)s2)cc1` [4-[(5-bromo-1,3-thiazol-2-yl)amino]-N-[2-(diethylamino)ethyl]benzamide] came in with an IC50 of 4.52 µM.
With `CN(C)CCNC(=O)c1ccc(Nc2ncc(Br)s2)cc1` [4-[(5-bromo-1,3-thiazol-2-yl)amino]-N-[2-(dimethylamino)ethyl]benzamide], half-maximal inhibition (IC50) was put at 5.25 µM.
In turn, `O=C(NCCN1CCOCC1)c1ccc(Nc2ncc(Br)s2)cc1` [4-[(5-bromo-1,3-thiazol-2-yl)amino]-N-[2-(morpholin-4-yl)ethyl]benzamide] displayed an IC50 of 2.3 µM.
`O=C(NCCN1CCCC1)c1ccc(Nc2ncc(Br)s2)cc1` [4-[(5-bromo-1,3-thiazol-2-yl)amino]-N-[2-(pyrrolidin-1-yl)ethyl]benzamide]: it took 5.32 µM to reach half-maximal inhibition (IC50).
Take `Nc1ncc(Br)s1` [5-bromo-1,3-thiazol-2-amine]: the IC50 is > 10 µM.
`Fc1ccc(Nc2ncc(Br)s2)c(F)c1` [5-bromo-N-(2,4-difluorophenyl)-1,3-thiazol-2-amine]: the IC50 was > 10 µM.
On to `Fc1ccc(F)c(Nc2ncc(Br)s2)c1` [5-bromo-N-(2,5-difluorophenyl)-1,3-thiazol-2-amine], for which the half-maximal inhibitory concentration (IC50) is > 10 µM.
In the case of `Fc1ccccc1Nc1ncc(Br)s1` [5-bromo-N-(2-fluorophenyl)-1,3-thiazol-2-amine], the IC50 was found to be 5.5 µM.
`COc1ccccc1Nc1ncc(Br)s1` [5-bromo-N-(2-methoxyphenyl)-1,3-thiazol-2-amine] had an IC50 of 2.7 µM.
The same measure, in the same setting: the same measure for `Cc1ccccc1Nc1ncc(Br)s1` [5-bromo-N-(2-methylphenyl)-1,3-thiazol-2-amine]: 3 µM; for `Brc1cnc(NCCc2ccccc2)s1` [5-bromo-N-(2-phenylethyl)-1,3-thiazol-2-amine]: > 10 µM.
For `Clc1ccc(Nc2ncc(Br)s2)cc1Cl` [5-bromo-N-(3,4-dichlorophenyl)-1,3-thiazol-2-amine], the IC50 was > 10 µM.
With `Clc1cc(Cl)cc(Nc2ncc(Br)s2)c1` [5-bromo-N-(3,5-dichlorophenyl)-1,3-thiazol-2-amine], the IC50 is > 10 µM.
Consider `Cc1cc(C)cc(Nc2ncc(Br)s2)c1` [5-bromo-N-(3,5-dimethylphenyl)-1,3-thiazol-2-amine], for which the IC50 is > 10 µM.
In the case of `Fc1cccc(Nc2ncc(Br)s2)c1` [5-bromo-N-(3-fluorophenyl)-1,3-thiazol-2-amine], the IC50 was 9.3 µM.
Take `COc1cccc(Nc2ncc(Br)s2)c1` [5-bromo-N-(3-methoxyphenyl)-1,3-thiazol-2-amine]: the IC50 was found to be 0.9 µM.
As for `Cc1cccc(Nc2ncc(Br)s2)c1` [5-bromo-N-(3-methylphenyl)-1,3-thiazol-2-amine], the IC50 stood at 1.1 µM.

Still in this assay, the particulars now being: pH 7; 22 °C.
`Nc1ccc(Nc2ncc(Br)s2)cc1` [1-N-(5-bromo-1,3-thiazol-2-yl)benzene-1,4-diamine] registered an IC50 of 0.6 µM.
The compound `CC(=O)c1ccc(Nc2ncc(Br)s2)cc1` [1-{4-[(5-bromo-1,3-thiazol-2-yl)amino]phenyl}ethan-1-one] showed an IC50 of 1.7 µM.
Compound `COCC(C)NC(=O)c1ccc(Nc2ncc(Br)s2)cc1` (centres undefined) [4-[(5-bromo-1,3-thiazol-2-yl)amino]-N-(1-methoxypropan-2-yl)benzamide] showed an IC50 of 0.33 µM.
As to `O=C(NCCO)c1ccc(Nc2ncc(Br)s2)cc1` [4-[(5-bromo-1,3-thiazol-2-yl)amino]-N-(2-hydroxyethyl)benzamide], half-maximal inhibition (IC50) required 1.48 µM.
Same read-out and setting: the same measure for `COCCN(C)C(=O)c1ccc(Nc2ncc(Br)s2)cc1` [4-[(5-bromo-1,3-thiazol-2-yl)amino]-N-(2-methoxyethyl)-N-methylbenzamide]: 0.98 µM; for `COCCNC(=O)c1ccc(Nc2ncc(Br)s2)cc1` [4-[(5-bromo-1,3-thiazol-2-yl)amino]-N-(2-methoxyethyl)benzamide]: 0.097 µM; for `N#Cc1ccc(Nc2ncc(Br)s2)cc1` [4-[(5-bromo-1,3-thiazol-2-yl)amino]benzonitrile]: 2.1 µM.
The same measure, in the same setting: then `Oc1ccc(Nc2ncc(Br)s2)cc1` [4-[(5-bromo-1,3-thiazol-2-yl)amino]phenol], with 0.51 µM; and `Fc1ccc(Nc2nc(Br)cs2)cc1` [4-bromo-N-(4-fluorophenyl)-1,3-thiazol-2-amine], with > 10 µM.
On the same count and under the same terms, the same measure for `Brc1ccc(Nc2ncc(Br)s2)cc1` [5-bromo-N-(4-bromophenyl)-1,3-thiazol-2-amine]: 2.9 µM.
For `Clc1ccc(Nc2ncc(Br)s2)cc1` [5-bromo-N-(4-chlorophenyl)-1,3-thiazol-2-amine], half-maximal inhibition (IC50) was put at 3 µM.
On the same count and under the same terms, then `CN(c1ccc(F)cc1)c1ncc(Br)s1` [5-bromo-N-(4-fluorophenyl)-N-methyl-1,3-thiazol-2-amine], with > 10 µM; and `Brc1cnc(Nc2ccc(I)cc2)s1` [5-bromo-N-(4-iodophenyl)-1,3-thiazol-2-amine], with > 10 µM; and `COc1ccc(Nc2ncc(Br)s2)cc1` [5-bromo-N-(4-methoxyphenyl)-1,3-thiazol-2-amine], with 1.7 µM.
In turn, `Cc1ccc(Nc2ncc(Br)s2)cc1` [5-bromo-N-(4-methylphenyl)-1,3-thiazol-2-amine] yielded an IC50 of 2.84 µM.
As to `O=[N+]([O-])c1ccc(Nc2ncc(Br)s2)cc1` [5-bromo-N-(4-nitrophenyl)-1,3-thiazol-2-amine], the IC50 was 13 µM.
In turn, `Brc1cnc(Nc2ccc(Oc3ccccc3)cc2)s1` [5-bromo-N-(4-phenoxyphenyl)-1,3-thiazol-2-amine] gave an IC50 of 1.4 µM.
